Results as given in patent publication US20260356804A1, “SODIUM CHANNEL BLOCKING COMPOUNDS, DERIVATIVES THEREOF, AND METHODS OF THEIR USE” (LATIGO BIOTHERAPEUTICS, INC., priority 2022, published 2026).
Read-outs that look alike come from different tables or passages of the source. Values belong to the molecule of their own block, whether it stands above or below them.

Biological target: T1, human Nav1.8/b3 (Homo sapiens, UniProt Q9Y5Y9)
T1 construct: expressed in transfected cells; host or cells: CHO
Assay: Compound Profiling Human NaV1.8/β3 Cell Line—SyncroPatch384PE Assay (automated patch clamp, stably transfected CHO cells)
Type: cell-based
Settings: Nav1.8/b3 CHO cells

[1] = P1 (IC50, resting state block), P1 measurement, resting state block, holding potential −120 mV, fourth set of compounds
[2] = P2 (IC50, inactivated state block), P2 measurement, inactivated state block, inactivation step −35 mV 10 sec, fourth set of compounds
[3] = P1 (IC50, resting state block), P1 measurement, resting state block, holding potential −120 mV, first set of compounds
[4] = P2 (IC50, inactivated state block), P2 measurement, inactivated state block, inactivation step −35 mV 10 sec, first set of compounds
[5] = P1 (IC50, resting state block), P1 measurement, resting state block, holding potential −120 mV, third set of compounds
[6] = P2 (IC50, inactivated state block), P2 measurement, inactivated state block, inactivation step −35 mV 10 sec, third set of compounds
[7] = P1 measurement, resting state block, holding potential −120 mV, third set of compounds, read-out: P1 (IC50, resting state block)
[8] = P2 measurement, inactivated state block, inactivation step −35 mV 10 sec, third set of compounds, read-out: P2 (IC50, inactivated state block)
[9] = P1 (IC50, resting state block), P1 measurement, resting state block, holding potential −120 mV, second set of compounds
[10] = P2 (IC50, inactivated state block), P2 measurement, inactivated state block, inactivation step −35 mV 10 sec, second set of compounds

T1 sequence (Q9Y5Y9 whole entry): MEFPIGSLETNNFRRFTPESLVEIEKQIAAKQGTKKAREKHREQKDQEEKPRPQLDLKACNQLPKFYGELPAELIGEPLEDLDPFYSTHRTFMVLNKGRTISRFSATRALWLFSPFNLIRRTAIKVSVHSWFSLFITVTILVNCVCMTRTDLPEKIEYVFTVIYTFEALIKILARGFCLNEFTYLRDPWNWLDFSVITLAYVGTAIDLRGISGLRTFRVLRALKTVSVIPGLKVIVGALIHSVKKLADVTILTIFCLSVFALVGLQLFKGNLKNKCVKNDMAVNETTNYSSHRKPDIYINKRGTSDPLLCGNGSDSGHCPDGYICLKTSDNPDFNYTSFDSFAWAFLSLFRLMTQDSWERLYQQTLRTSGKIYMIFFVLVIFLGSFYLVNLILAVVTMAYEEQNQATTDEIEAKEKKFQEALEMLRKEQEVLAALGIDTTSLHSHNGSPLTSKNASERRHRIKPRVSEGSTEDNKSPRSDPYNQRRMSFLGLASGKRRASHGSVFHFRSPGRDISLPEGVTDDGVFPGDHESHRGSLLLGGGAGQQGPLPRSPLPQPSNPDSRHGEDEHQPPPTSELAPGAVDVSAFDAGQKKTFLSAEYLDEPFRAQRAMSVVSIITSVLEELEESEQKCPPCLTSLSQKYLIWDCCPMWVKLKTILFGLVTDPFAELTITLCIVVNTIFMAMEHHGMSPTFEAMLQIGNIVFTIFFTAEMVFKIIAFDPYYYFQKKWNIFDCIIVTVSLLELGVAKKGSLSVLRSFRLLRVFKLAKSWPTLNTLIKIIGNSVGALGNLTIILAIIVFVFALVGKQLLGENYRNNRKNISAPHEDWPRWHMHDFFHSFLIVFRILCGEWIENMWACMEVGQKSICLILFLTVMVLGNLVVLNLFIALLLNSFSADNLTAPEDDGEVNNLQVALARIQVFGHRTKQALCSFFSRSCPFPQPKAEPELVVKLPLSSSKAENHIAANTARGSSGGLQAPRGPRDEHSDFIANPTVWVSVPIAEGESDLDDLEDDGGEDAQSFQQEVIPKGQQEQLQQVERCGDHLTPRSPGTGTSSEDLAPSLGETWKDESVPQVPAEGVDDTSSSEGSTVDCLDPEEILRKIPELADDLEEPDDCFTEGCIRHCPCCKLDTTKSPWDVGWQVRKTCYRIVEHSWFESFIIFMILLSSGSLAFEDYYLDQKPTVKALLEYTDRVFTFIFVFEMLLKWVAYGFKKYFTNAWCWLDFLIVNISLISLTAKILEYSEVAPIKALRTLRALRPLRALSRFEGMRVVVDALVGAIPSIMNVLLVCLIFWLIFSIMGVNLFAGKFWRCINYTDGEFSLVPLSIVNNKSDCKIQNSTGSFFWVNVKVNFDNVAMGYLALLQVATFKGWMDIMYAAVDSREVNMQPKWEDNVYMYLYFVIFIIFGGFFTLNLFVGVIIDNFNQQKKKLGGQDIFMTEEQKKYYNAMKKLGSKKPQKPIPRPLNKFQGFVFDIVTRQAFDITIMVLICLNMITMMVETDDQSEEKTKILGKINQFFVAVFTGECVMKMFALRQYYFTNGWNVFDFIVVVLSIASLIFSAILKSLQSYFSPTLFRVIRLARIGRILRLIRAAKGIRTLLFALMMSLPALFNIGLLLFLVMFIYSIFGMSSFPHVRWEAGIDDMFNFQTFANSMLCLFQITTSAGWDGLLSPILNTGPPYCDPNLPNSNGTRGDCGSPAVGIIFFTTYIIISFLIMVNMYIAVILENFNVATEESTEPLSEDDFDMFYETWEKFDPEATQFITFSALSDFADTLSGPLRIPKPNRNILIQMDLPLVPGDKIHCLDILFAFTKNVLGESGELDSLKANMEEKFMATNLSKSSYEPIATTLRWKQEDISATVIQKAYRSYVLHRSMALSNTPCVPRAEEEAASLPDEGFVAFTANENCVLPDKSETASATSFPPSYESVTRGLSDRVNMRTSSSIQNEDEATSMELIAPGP
T1 sequence (Q9NY72 23-215 partner): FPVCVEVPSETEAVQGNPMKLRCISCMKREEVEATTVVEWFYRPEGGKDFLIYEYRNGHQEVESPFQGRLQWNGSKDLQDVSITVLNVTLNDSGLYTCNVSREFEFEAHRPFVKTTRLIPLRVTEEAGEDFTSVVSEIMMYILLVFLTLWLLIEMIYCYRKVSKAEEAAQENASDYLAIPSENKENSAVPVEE

IC50 [3]: < 5 nM
IC50 [4]: < 5 nM
Structure (SMILES): Cc1nc(F)ccc1Oc1cc(C2CC2)c(C(F)(F)F)cc1C(=O)Nc1ccc(F)c([S@@](C)(=N)=O)c1 [Example 51A]

IC50 [5]: 50 to 100 nM
IC50 [6]: 50 to 100 nM
Structure (SMILES): Cc1nc(F)ccc1Oc1ncc(C(C)C)c(C)c1C(=O)Nc1cccc([S@](C)(=N)=O)c1 [Example 104C]

IC50 [5]: 5 to 50 nM
IC50 [6]: 5 to 50 nM
Structure (SMILES): Cc1nc(F)ccc1Oc1nc(C(F)(F)F)c(Cl)c(C)c1C(=O)Nc1ccnc([S@](C)(=N)=O)c1 [Example 100C]

IC50 [3]: < 5 nM
IC50 [4]: < 5 nM
Structure (SMILES): Cc1nc(F)ccc1Oc1cc(C2CC2)c(C(F)(F)F)cc1C(=O)Nc1ccc(F)c([S@](C)(=N)=O)c1 [Example 52A]

IC50 [7]: < 5 nM
IC50 [8]: < 5 nM
Structure (SMILES): Cc1nc(F)ccc1Oc1ncc(C(F)(F)F)c(C)c1C(=O)Nc1cccc(S(C)(=O)=NCC2(N)CC2)c1 (centres unmarked) [Example 92C]

IC50 [5]: 50 to 100 nM
IC50 [6]: 50 to 100 nM
Structure (SMILES): Cc1nc(F)ccc1Oc1nc2ccccc2cc1C(=O)Nc1cccc([S@](C)(=N)=O)c1 [Example 97C]

IC50 [3]: > 200 nM
IC50 [4]: > 200 nM
Structure (SMILES): Cc1nc(F)ccc1Oc1cc(C(F)(F)F)c(Cl)c(C)c1C(=O)NC12CC(C(N)=O)(C1)C2 [Example 53A]

IC50 [3]: > 200 nM
IC50 [4]: > 200 nM
Structure (SMILES): Cc1nc(F)ccc1Oc1cc(C(F)(F)F)c(Cl)cc1C(=O)NC12CC(C(N)=O)(C1)C2 [Example 63A]

IC50 (read-out: P1 (IC50, resting state block), P1 measurement, resting state block, holding potential −120 mV, third set of compounds): < 5 nM
IC50 (read-out: P2 (IC50, inactivated state block), P2 measurement, inactivated state block, inactivation step −35 mV 10 sec, third set of compounds): < 5 nM
Structure (SMILES): Cc1nc(F)ccc1Oc1nc(C2CC2)c(C(F)(F)F)c(C)c1C(=O)Nc1cccc([S@](C)(=N)=O)c1 [Example 108C]

IC50 [3]: < 5 nM
IC50 [4]: < 5 nM
Structure (SMILES): Cc1nc(F)ccc1Oc1cc(C(F)(F)F)c(Cl)cc1C(=O)Nc1ccc(F)c(S(C)(=O)=O)c1 [Example 54A]

IC50 [5]: < 5 nM
IC50 [6]: < 5 nM
Structure (SMILES): Cc1nc(F)ccc1Oc1nc(C(F)(F)F)c(Br)c(C)c1C(=O)Nc1cccc([S@@](C)(=O)=NCCN)c1 [Example 96C]

IC50 [5]: < 5 nM
IC50 [6]: < 5 nM
Structure (SMILES): Cc1nc(F)ccc1Oc1ncc(C(F)(F)F)c(C)c1C(=O)Nc1cccc(S(C)(=O)=O)c1 [Example 123C]

Further lines, the molecule ahead of its results:

Structure (SMILES): Cc1nc(F)ccc1Oc1ncc(C(F)(F)F)c(C)c1C(=O)Nc1cccc([S@@](C)(=O)=NC(=O)C(N)C(F)(F)F)c1 (stereo partly drawn) [Example 11D, N-(3-((R)—N-(2-amino-3,3,3-trifluoropropanoyl)-S-methylsulfonimidoyl)phenyl)-2-((6-fluoro-2-methylpyridin-3-yl)oxy)-4-methyl-5-(trifluoromethyl)nicotinamide]
IC50 [1]: < 5 nM
IC50 [2]: < 5 nM

Structure (SMILES): Cc1nc(F)ccc1Oc1cc(C(F)(F)F)ccc1C(=O)Nc1cccc([S@](C)(=N)=O)c1 [Example 2A, (R)-2-((6-fluoro-2-methylpyridin-3-yl)oxy)-N-(3-(S-methylsulfonimidoyl)phenyl)-4-(trifluoromethyl)benzamide]
IC50 [3]: 5 to 50 nM
IC50 [4]: 5 to 50 nM

Structure (SMILES): COc1cc(C#N)ccc1Oc1ncc(-c2ccc(C)cn2)c(C)c1C(=O)Nc1cccc([S@](C)(=N)=O)c1 [Example 22C, (R)-6-(4-cyano-2-methoxyphenoxy)-4,5-dimethyl-N-(3-(S-methylsulfonimidoyl)phenyl)-[2,3-bipyridine]-5-carboxamide]
IC50 [7]: 50 to 100 nM
IC50 [8]: 50 to 100 nM

Structure (SMILES): Cc1nc(F)ccc1Oc1ncc(C(F)(F)F)c(C)c1C(=O)Nc1ccnc([S@@](C)(=N)=O)c1 (single isomer, unassigned) [Example 10C]
IC50 [5]: 5 to 50 nM
IC50 [6]: 5 to 50 nM

Structure (SMILES): Cc1nc(F)ccc1Oc1nnc(C(F)(F)F)c(C)c1C(=O)Nc1cccc([S@@](C)(=O)=NC(=O)[C@@H](C)O)c1 [Example 19D, 3-((6-fluoro-2-methylpyridin-3-yl)oxy)-N-(3-((R)—N—((R)-2-hydroxypropanoyl)-S-methylsulfonimidoyl)phenyl)-5-methyl-6-(trifluoromethyl)pyridazine-4-carboxamide]
IC50 [1]: 5 to 50 nM
IC50 [2]: 5 to 50 nM

Structure (SMILES): COCC(=O)N=[S@](C)(=O)c1cccc(NC(=O)c2c(Oc3ccc(F)nc3C)ncc(C(F)(F)F)c2C)c1 [Example 8D, (R)-2-((6-fluoro-2-methylpyridin-3-yl)oxy)-N-(3-(N-(2-methoxyacetyl)-S-methylsulfonimidoyl)phenyl)-4-methyl-5-(trifluoromethyl)nicotinamide]
IC50 [1]: < 5 nM
IC50 [2]: < 5 nM

Structure (SMILES): CNCC(=O)N=[S@](C)(=O)c1cccc(NC(=O)c2cc(Cl)c(C(F)(F)F)cc2Oc2ccc(F)nc2C)c1 [Example 29B]
IC50 [9]: < 5 nM
IC50 [10]: < 5 nM

Structure (SMILES): COc1c(Oc2cc(C(F)(F)F)nnc2C(=O)Nc2cccc([S+](C)[O-])c2)ccc(F)c1F (centres unmarked) [Example 30C, 4-(3,4-difluoro-2-methoxyphenoxy)-N-(3-(methylsulfinyl)phenyl)-6-(trifluoromethyl)pyridazine-3-carboxamide]
IC50 [5]: > 200 nM
IC50 [6]: > 200 nM

Structure (SMILES): Cc1nc(F)ccc1Oc1nnc(C(F)(F)F)c(C)c1C(=O)Nc1cccc([S@@](C)(=O)=NC(=O)CN)c1 [Example 24D, (R)-3-((6-fluoro-2-methylpyridin-3-yl)oxy)-N-(3-(N-glycyl-S-methylsulfonimidoyl)phenyl)-5-methyl-6-(trifluoromethyl)pyridazine-4-carboxamide]
IC50 [1]: 5 to 50 nM
IC50 [2]: 5 to 50 nM

Structure (SMILES): Cc1nc(F)ccc1Oc1cc(C(F)(F)F)c(Cl)cc1C(=O)Nc1ccc([S@@](C)(=N)=O)cc1 [Example 48A]
IC50 [3]: 50 to 100 nM
IC50 [4]: 50 to 100 nM

Structure (SMILES): Cc1nc(F)ccc1Oc1ncc(C(F)(F)F)c(C)c1C(=O)Nc1ccc(F)c([S@@](C)(=N)=O)c1 (single isomer, unassigned) [Example 14C]
IC50 [5]: 5 to 50 nM
IC50 [6]: 5 to 50 nM

Structure (SMILES): Cc1nc(F)ccc1Oc1ncc(C(F)(F)F)c(C)c1C(=O)Nc1cccc([S@@](C)(=O)=NCCN)c1 [Example 43C, (R)—N-(3-(N-(2-aminoethyl)-S-methylsulfonimidoyl)phenyl)-2-((6-fluoro-2-methylpyridin-3-yl)oxy)-4-methyl-5-(trifluoromethyl)nicotinamide]
IC50 [5]: < 5 nM
IC50 [6]: < 5 nM

Structure (SMILES): Cc1nc(F)ccc1Oc1cc(C(F)(F)F)c(Cl)cc1C(=O)Nc1cccc([S@](C)(=N)=O)c1 [Example 1A, (R)-5-chloro-2-((6-fluoro-2-methylpyridin-3-yl)oxy)-N-(3-(S-methylsulfonimidoyl)phenyl)-4-(trifluoromethyl)benzamide]
IC50 [3]: < 5 nM
IC50 [4]: < 5 nM

Structure (SMILES): COc1cc(C#N)ccc1Oc1ncc(Cl)c(C)c1C(=O)Nc1cccc([S@](C)(=N)=O)c1 [Example 26C, (R)-5-chloro-2-(4-cyano-2-methoxyphenoxy)-4-methyl-N-(3-(S-methylsulfonimidoyl)phenyl)nicotinamide]
IC50 [5]: 5 to 50 nM
IC50 [6]: 5 to 50 nM

Structure (SMILES): Cc1nc(F)ccc1Oc1ncc(-c2ccc3c(c2)OCCO3)c(C)c1C(=O)Nc1cccc([S@](C)(=N)=O)c1 [Example 4C, (R)-5-(2,3-dihydrobenzo[b][1,4]dioxin-6-yl)-2-((6-fluoro-2-methylpyridin-3-yl)oxy)-4-methyl-N-(3-(S-methylsulfonimidoyl)phenyl)nicotinamide]
IC50 [5]: 5 to 50 nM
IC50 [6]: 5 to 50 nM

Structure (SMILES): Cc1nc(F)ccc1Oc1cc(C(F)(F)F)ccc1C(=O)Nc1cccc([S@@](C)(=O)=NC(=O)CO)c1 [Example 11B, (R)-2-((6-fluoro-2-methylpyridin-3-yl)oxy)-N-(3-(N-(2-hydroxyacetyl)-S-methylsulfonimidoyl)phenyl)-4-(trifluoromethyl)benzamide]
IC50 [9]: 5 to 50 nM
IC50 [10]: 5 to 50 nM
